Results: PubChem BioAssay AID192 (DTP/NCI, 2004)
Toxic doses and inconclusive results are not listed. The calls were made as follows: active = survival T/C of 150% or more; inactive = T/C below 125% in these data.

Test system: BDF1 mice, B16 melanoma ip, median survival T/C
Experiment: NCI In Vivo Anticancer Drug Screen. Data for tumor model B16 Melanoma (intraperitoneal) in B6D2F1 (BDF1) mice
Details: endpoint: median survival time, higher = longer survival
Procedure, shortened: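 Tumor-bearing mice received test compound or vehicle. Survival or tumor size was then measured in both groups. The treated-group figure was divided by the control-group figure.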

[1] = dose: 100.0 mg/kg/injection, schedule: Q04DX003 (ip), vehicle: Klucel (hydroxypropylcellulose) (HPC)
[2] = dose: 100.0 mg/kg/injection, schedule: Q01DX009 (ip), vehicle: saline
[3] = dose: 200.0 mg/kg/injection, schedule: Q01DX009 (ip), vehicle: saline
[4] = dose: 400.0 mg/kg/injection, schedule: Q01DX009 (ip), vehicle: saline
[5] = dose: 50.0 mg/kg/injection, schedule: Q01DX009 (ip), vehicle: saline with Tween-80
[6] = dose: 100.0 mg/kg/injection, schedule: Q01DX009 (ip), vehicle: saline with Tween-80
[7] = dose: 12.5 mg/kg/injection, schedule: Q01DX009 (ip), vehicle: saline with Tween-80
[8] = dose: 25.0 mg/kg/injection, schedule: Q01DX009 (ip), vehicle: saline with Tween-80
[9] = dose: 6.25 mg/kg/injection, schedule: Q01DX009 (ip), vehicle: Klucel (hydroxypropylcellulose) (HPC)
[10] = dose: 12.5 mg/kg/injection, schedule: Q01DX009 (ip), vehicle: Klucel (hydroxypropylcellulose) (HPC)
[11] = dose: 100.0 mg/kg/injection, schedule: Q01DX009 (ip), vehicle: Klucel (hydroxypropylcellulose) (HPC)
[12] = dose: 200.0 mg/kg/injection, schedule: Q01DX009 (ip), vehicle: Klucel (hydroxypropylcellulose) (HPC)
[13] = dose: 400.0 mg/kg/injection, schedule: Q01DX009 (ip), vehicle: Klucel (hydroxypropylcellulose) (HPC)
[14] = dose: 50.0 mg/kg/injection, schedule: Q01DX009 (ip), vehicle: Klucel (hydroxypropylcellulose) (HPC)
[15] = dose: 200.0 mg/kg/injection, schedule: Q01DX009 (ip), vehicle: saline with Tween-80
[16] = dose: 3.12 mg/kg/injection, schedule: Q01DX009 (ip), vehicle: Klucel (hydroxypropylcellulose) (HPC)
[17] = dose: 25.0 mg/kg/injection, schedule: Q01DX009 (ip), vehicle: Klucel (hydroxypropylcellulose) (HPC)

Measured: T/C

Cc1ccc(S(=O)(=O)N(Cc2cccc(CN(S(=O)(=O)c3ccc(C)cc3)S(=O)(=O)c3ccc(C)cc3)c2)S(=O)(=O)c2ccc(C)cc2)cc1
inactive: [1] 87 % of control

CC(CCOCC1CO1)OCC1CO1 (configuration not stated)
inactive: dose: 100.0 mg/kg/injection, schedule: Q04DX003 (ip), vehicle: saline 100 % of control | dose: 200.0 mg/kg/injection, schedule: Q04DX003 (ip), vehicle: saline 108 % of control | dose: 400.0 mg/kg/injection, schedule: Q04DX003 (ip), vehicle: saline 110 % of control

Cc1c(NCO)c(=O)n(-c2ccccc2)n1C
inactive: [2] 102 % of control | [3] 94 % of control | [4] 91 % of control

CCOC(=O)/C(=C\c1ccccc1)P(=O)(OCC)c1ccccc1 (configuration not stated)
inactive: dose: 25.0 mg/kg/injection, schedule: Q04DX003 (ip), vehicle: Klucel (hydroxypropylcellulose) (HPC) 93 % of control | dose: 50.0 mg/kg/injection, schedule: Q04DX003 (ip), vehicle: Klucel (hydroxypropylcellulose) (HPC) 95 % of control | [1] 94 % of control

C#CCOCC1CO1 (configuration not stated)
inactive: [5] 97 % of control | [6] 91 % of control

CCC(=S)Nc1ccc(Cl)cc1
inactive: dose: 25.0 mg/kg/injection, schedule: Q01DX009 (ip), vehicle: carboxymethylcellulose (CMC) 100 % of control | dose: 50.0 mg/kg/injection, schedule: Q01DX009 (ip), vehicle: carboxymethylcellulose (CMC) 107 % of control | dose: 100.0 mg/kg/injection, schedule: Q01DX009 (ip), vehicle: carboxymethylcellulose (CMC) 103 % of control

O=C(O)c1ccc(O)c([N+](=O)[O-])c1
inactive: [2] 115 % of control | [3] 87 % of control

COC(=O)c1ccc[n+](CCc2c[nH]c3ccccc23)c1
inactive: [7] 108 % of control | [8] 99 % of control | [5] 97 % of control

CC(C)=CCC/C(C)=C/CNCCc1c[nH]c2ccccc12
inactive: [9] 107 % of control | [10] 111 % of control

NC(=O)c1ccccc1C(N)=O
inactive: [11] 100 % of control | [12] 106 % of control | [13] 93 % of control

[Cl][Pt][Cl].[NH-]C(CO)C(=O)O (configuration not stated)
active: dose: 12.5 mg/kg/injection, schedule: Q01DX009 (ip), vehicle: water 151 % of control

Cc1ccc(Nc2nnc(N=Nc3ccccc3)s2)cc1C
inactive: [14] 86 % of control | [11] 91 % of control | [12] 91 % of control

N#CCCN(CCC#N)c1ccc(C=O)cc1
inactive: [11] 104 % of control | [12] 98 % of control | [13] 102 % of control

COc1ccccc1NC(=O)Oc1c(C(C)C)cccc1C(C)C
inactive: [11] 93 % of control | [12] 90 % of control | [13] 93 % of control

Cc1ccc([N+](=O)[O-])c2ccccc12
inactive: [6] 97 % of control | [15] 88 % of control

Oc1ccc(/C=N/NC(=S)NN2CCOCC2)nc1
inactive: [16] 104 % of control | [9] 103 % of control | [10] 104 % of control | [17] 108 % of control

O=C1c2ccccc2C(=O)C(Cl)C1Cl (configuration not stated)
inactive: dose: 0.19 mg/kg/injection, schedule: Q01DX009 (ip), vehicle: saline with Tween-80 94 % of control | dose: 0.39 mg/kg/injection, schedule: Q01DX009 (ip), vehicle: saline with Tween-80 94 % of control | dose: 5.0 mg/kg/injection, schedule: Q01DX009 (ip), vehicle: saline 86 % of control

Cc1ccc(NS(=O)(=O)c2ccc(F)cc2)cc1Cl
inactive: [11] 90 % of control | [1] 103 % of control | [12] 100 % of control | dose: 200.0 mg/kg/injection, schedule: Q04DX003 (ip), vehicle: Klucel (hydroxypropylcellulose) (HPC) 100 % of control | [13] 86 % of control | dose: 400.0 mg/kg/injection, schedule: Q04DX003 (ip), vehicle: Klucel (hydroxypropylcellulose) (HPC) 110 % of control

CC1CC[N-]CC1.CC1CC[N-]CC1.CC1CC[N-]CC1.CC1CC[N-]CC1.CS(C)=O.CS(C)=O.[Cl-].[Cl-].[Cl-].[Cl-].[Pt+4].[Rh+3]
inactive: dose: 0.2 mg/kg/injection, schedule: Q01DX009 (ip), vehicle: water 100 % of control | dose: 0.4 mg/kg/injection, schedule: Q01DX009 (ip), vehicle: water 104 % of control | dose: 0.8 mg/kg/injection, schedule: Q01DX009 (ip), vehicle: water 106 % of control | dose: 1.5 mg/kg/injection, schedule: Q01DX009 (ip), vehicle: water 106 % of control | dose: 3.0 mg/kg/injection, schedule: Q01DX009 (ip), vehicle: water 106 % of control

ClC1(Cl)C2C=CC=CCC21 (configuration not stated)
inactive: dose: 50.0 mg/kg/injection, schedule: Q04DX003 (ip), vehicle: other 107 % of control | dose: 100.0 mg/kg/injection, schedule: Q04DX003 (ip), vehicle: other 102 % of control | dose: 200.0 mg/kg/injection, schedule: Q04DX003 (ip), vehicle: other 86 % of control

COC1=CC(=O)C(O)=C(CC2(C)C(C)CCC3(C)C2CCCC3(C)C)C1=O (configuration not stated)
inactive: [16] 91 % of control | [9] 96 % of control | [10] 96 % of control | [17] 104 % of control | [14] 100 % of control | [11] 100 % of control

CCCCCCCCCCCCCCCCCCOCCCCCCCCCCCCCCCCCC
inactive: [6] 90 % of control | dose: 400.0 mg/kg/injection, schedule: Q01DX009 (ip), vehicle: saline with Tween-80 88 % of control

COc1cc2c(=O)oc3c(OC)c(O)cc4c(=O)oc(c1OC)c2c34
inactive: dose: 4.0 mg/kg/injection, schedule: Q01DX009 (ip), vehicle: saline with Tween-80 100 % of control | dose: 8.0 mg/kg/injection, schedule: Q01DX009 (ip), vehicle: saline with Tween-80 94 % of control | dose: 16.0 mg/kg/injection, schedule: Q01DX009 (ip), vehicle: saline with Tween-80 96 % of control | dose: 32.0 mg/kg/injection, schedule: Q01DX009 (ip), vehicle: saline with Tween-80 90 % of control

O=c1[nH]c2ccccc2n1C1CCN(CCCC(c2ccc(F)cc2)c2ccc(F)cc2)CC1
inactive: dose: 1.56 mg/kg/injection, schedule: Q01DX009 (ip), vehicle: Klucel (hydroxypropylcellulose) (HPC) 102 % of control | [16] 100 % of control | [9] 100 % of control | [10] 94 % of control | [17] 105 % of control | [14] 87 % of control | [11] 87 % of control

CC1(C(=O)O)CCC2(C)CCC3(C)C(=CC(=O)C4C5(C)CCC(OC6OC(C(=O)O)C(O)C(O)C6OC6OC(C(=O)O)C(O)C(O)C6O)C(C)(C)C5CCC43C)C2C1 (configuration not stated)
inactive: [2] 106 % of control | [3] 101 % of control | [4] 102 % of control

Nc1ccc(OCc2ccc(S(=O)(=O)F)c(Cl)c2)c(Cl)c1
inactive: [11] 110 % of control | [12] 110 % of control

N#CCCSC(=S)C1CCCC1=N (configuration not stated)
inactive: [7] 112 % of control | [8] 106 % of control | [5] 103 % of control | [6] 103 % of control | [15] 108 % of control
